In US6537545B1, “Use of corneal hardening agents in enzymeorthokeratology” (ISTA Pharmaceuticals, Inc., priority 1998, dated 2003):

Experiments:
Format in all cases: in vivo
[1] = tested on: eyes of non-sighted human patients; test: Safety of non-enzymatic corneaplasty and topical 3% glyceraldehyde in five non-sighted human patients (Example 5); settings: lenses 7 days, then 3% glyceraldehyde plus lenses 28 days, only minor incidents of SPK
Protocol: In this study five non-sighted patients with good corneas were treated with contact lenses and a 3% glyceraldehyde solution to determine the safety of this procedure. Here, the patients were fitted with and wore contact lenses for seven (7) days. Following this period a 3% glyceraldehyde solution (described above) was applied to the eyes and the contact lens wear continued for twenty-eight (28) days. After this period both the contact lens wear and the glyceraldehyde treatment ceased.
The patients were individually examined for the effects of the treatments following removal of the lenses and cessation of the glyceraldehyde treatment. The first examination was on the last day of treatment, and five (5) subsequent examinations were administered over a one month period.

[2] = tested on: eyes of non-sighted human patients; test: Safety of enzymatic corneaplasty with hyaluronidase and topical 3% glyceraldehyde in seven non-sighted human patients (Example 6); settings: 500 IU hyaluronidase, lenses, 3% glyceraldehyde 2 drops 4 times per day, 28 days
Protocol: The methodology used in this study was similar to that discussed in Example 4. Subjects were injected intrastromally with 500 IU of a hyaluronidase solution on the first day of the study following an initial eye examination. The injected enzyme was allowed to digest the corneal substrate for seven (7) days. At that time contact lenses were fitted to the treated eyes of the subjects. The subjects wore the lenses for another seven days at which time the topical application of the 3% glyceraldehyde solution was first applied. The 3% glyceraldehyde solution was applied at 2 drops, 4 times per day for the following 28 days. At the end of the 28 days the contact lenses were removed and the glyceraldehyde treatments were ceased.
The subjects were examined and data was recorded throughout the treatment period and following the cessation of treatment. […] The only apparent negative effects of the treatment were incidents of edema and minor manifestations of SPK. These negative manifestations resolved favorably for most patients.

[3] = tested on: eyes of myopic human subjects; test: Mild myopia study, group II: 500 IU hyaluronidase, corrective lenses, 3% glyceraldehyde (Example 9)
From the text: Given the favorable results obtained in Example 8, an additional study was undertaken to test the safety and efficacy of the method of the present invention using a larger group of subjects. In this study, a group of subjects were selected and randomly separated into three test groups to test the safety and efficacy of using hyaluronidase and a glyceraldehyde solution for treating subjects with sub-optimal visual acuity. Groups one and two received an intrastromal injection of hyaluronidase (50 and 500 IU, respectively), while group three received a control injection of saline.
Following a two week incubation period after the injection, the three groups were fitted with corrective lenses to optimize the visual acuity of the subjects. The corrective lenses were left in place for a period of time sufficient to alter the shape of the subjects' eyes so as to achieve an optimal visual acuity. This period of time was generally 2 days in length. Once an acceptable visual acuity was achieved, the subjects in the three groups received a topical 3% glyceraldehyde solution in the form of ophthalmic drops four times per day while wearing the corrective lenses. The glyceraldehyde treatment was generally administered for one month. Lens wear occurred from 8 to 12 hours during the day.
At the end of the treatment period both the lens wear and the glyceraldehyde solution administration was terminated. The general health and visual acuity of the subjects was monitored from 3 to 5 months following treatment termination.
The subjects of group II were treated as those in group I in preparation for their participation in the study reported here. Before beginning the experimental protocol, test subjects were examined initially to establish a baseline from which the future results of the treatment were compared.
Following the establishment of a baseline reading, group II subjects were fitted with contact lenses and wore the corrective lenses at night for a period of two (2) to seven (7) days or until an acceptable visual acuity (approximately 20/20) was achieved. Group II test subjects received 500 IU of hyaluronidase by injection as compared to the 50 IU of group I. Two groups of subjects received 500 IU of hyaluronidase. The results obtained from the first group are shown in Table IIIA and the results from the second group are shown in Table IIIA and are identified in the table by the notation Gr. VI. There were no meaningful differences in the treatment protocols between these two groups. Subjects achieving an acceptable visual acuity received the topical 3% glyceraldehyde solution in the form of ophthalmic drops four times per day (08:00, 12:00, 16:00, and 20:00) for a period of 1 month in conjunction with daytime lens wear for stabilization. During this period, lens were occurred for approximately 8-12 hours per day and there was no nocturnal lens wear.
The subjects were examined periodically during the glyceraldehyde treatment to monitor changes in the health of the treated eyes.
At the end of the treatment period, the stabilizing lens were removed and the administration of the 3% glyceraldehyde solution was terminated. Following termination of the treatment, the subjects were examined immediately after treatment was terminated, once a week for the first four weeks after termination, and then monthly to measure changes in the visual acuity of the treated eyes. The health of the eye was also monitored. Sequelae characterized by the appearance or worsening of serious ocular symptoms or slit-lamp findings observed during these examinations were assessed. The proportions of subjects with such findings were analyzed.

[4] = tested on: Dutch Belted rabbit eyes; test: Slit lamp biomicroscopy including Rose Bengal staining (Example 2)
Protocol: This example further examines the safety of glyceraldehyde treatment in an animal model. The experiment described in Example 2 involved the study of six (6) pigmented Dutch Belted rabbits, two (2) in the control group and four (4) in glyceraldehyde treated experimental group. On Study Day 1, all rabbits received a thorough ophthalmic examination including slit lamp biomicroscopy and indirect ophthalmoscopy.
The slit lamp biomicroscopy was performed substantially as described in Example 1. However, Rose Bengal stain was used here applied using Rose Bengal Ophthalmic Strips (Barnes-Hind, Inc., Sunnyvale, Calif.). This procedure involved a sterile strip wetted in 0.9% sodium chloride applied to the […] and sciera of an examined rabbit. The rabbit was allowed to blink applying the stain and then the treated eye was examined. Slit lamp biomicroscopy including Rose Bengal staining was performed on Study Days 1 (baseline), 8, 9, 11, 15, 34, 45, and 63. The animals were scored and the results recorded using the criteria described in Example 1.
Following baseline examinations, the rabbits were anesthetized and received a corneal intrastromal injection of 500 IU of hyaluronidase in OD (right eye) only using the method described in Example 1.
The administration of the test agents in the form of topical eyedrops began on Study Day 8. The control animals were administered a Balanced Saline Solution (BSS) (IOLAB Corporation, Claremont, Calif.) four times a day in each eye. The experimental animals received a 3% glyceraldehyde solution. The glyceraldehyde solution was prepared under sterile conditions at Advanced Corneal Systems (Irvine, Calif.) by dissolving 18 grams of glyceraldehyde in 600 mL of 0.9% sodium chloride USP, sterile filtering, and aliquotting the 3% glyceraldehyde (w/v) solution into 10 ml droppers. The experimental rabbits received one drop of glyceraldehyde solution four times a day using the technique described in Example 1. The rabbits received topical drops for a total of 63 days.

In the case of `O=CC(O)CO` (centres unmarked) [glyceraldehyde], the “corneal findings in all patients” value [1] is reported as “Normal corneas”, the “negative effects of enzyme injection or glyceraldehyde application” value [2] is reported as “no significant negative effects” and the “UVA at follow-up after lens removal” value ([3]; Gr. VI subject 101, one month time point, baseline 20/200) is reported as 20/60. The “UVA at follow-up after lens removal” value ([3]; Gr. VI subject 102, two month date, baseline 20/160) was 20/20, the “UVA at follow-up after lens removal” value ([3]; Gr. VI subject 103, two month date, baseline 20/160) was 20/50 and the “UVA at follow-up after lens removal” value ([3]; Gr. VI subject 104, one month time point, baseline 20/200) was 20/80. The “UVA at follow-up after lens removal” value ([3]; Gr. VI subject 105, two month date, baseline 20/200) was 20/80, the “UVA at follow-up after lens removal” value ([3]; Gr. VI subject 106, two month date, baseline 20/160) was 20/63 and the “UVA at follow-up after lens removal” value ([3]; Gr. VI subject 107, one month time point, baseline 20/60) was 20/20. For the same compound, the “overall effect on retention of orthokeratology benefits” value ([3]; combination of hyaluronidase (500 IU) and glyceraldehyde treatment) was “effective at retaining the benefits of orthokeratology”, the “UVA at follow-up after lens removal” value ([3]; subject 00S/031, three month point, baseline 20/200) was 20/50 and the “UVA at follow-up after lens removal” value ([3]; subject 004, four month point, baseline 20/160) was 20/50. For the same compound, the “UVA at follow-up after lens removal” value ([3]; subject 013, three month point, baseline 20/100) was 20/40, the “UVA at follow-up after lens removal” value ([3]; subject 017, three month point, baseline 20/50) was 20/25 and the “UVA at follow-up after lens removal” value ([3]; subject 018, three month point, baseline 20/80) was 20/25. The “UVA at follow-up after lens removal” value ([3]; subject 019, three month point, baseline 20/70) was 20/15, the “UVA at follow-up after lens removal” value ([3]; subject 023, two months, baseline 20/70) was 20/20 and the “UVA at follow-up after lens removal” value ([3]; subject 026, two months, baseline 20/50) was 20/25. The “UVA at follow-up after lens removal” value ([3]; subject 030, two months, baseline 20/300) was 20/100, the “UVA at follow-up after lens removal” value ([3]; subject P10/008, three month point, baseline 20/400) was 20/80 and the “day by which aqueous cell/flare was absent” value ([4]; glyceraldehyde treated cohort had cell and flare at baseline) was no more than 14 days. For the same compound, the “changes to the structure of the eyes as compared to controls” value ([4]; rabbits, 3% glyceraldehyde 1 drop four times a day, 63 days, 500 IU hyaluronidase in right eye only) was “no significant changes” and the “effect on resolution of baseline aqueous cell and flare” value ([4]; rabbits, 3% glyceraldehyde drops four times a day) was “did not appear to impair the resolution of the cell and flare”.
